Results on one compound are retold here after article PMC1192819, “Molecular cloning and characterization of a nuclear androgen receptor activated by 11-ketotestosterone” (Reproductive biology and endocrinology : RB&E, 2005).

The target of assay [1] is AR in stickleback kidney cytosolic fraction. The experiment in a line: Saturation and Scatchard analysis, kidney cytosolic fraction. The format is binding, three-spined stickleback (Gasterosteus aculeatus). As to conditions: overnight 4°C. As for the experimental part: Aliquots (250 μl) of the nuclear or cytosolic preparations were added to each tube, the tubes were vortexed and incubated over night at 4°C. To stop the binding reaction, 250 μl DCC was added to each tube. The tubes were vortexed and the suspensions were incubated for 5 min at 4°C, before spinning at 3,000 × g at 4°C for 5 min. The supernatants were decanted into 7 ml scintillation vials, 5 ml of standard scintillation cocktail was added and the radioactivity in each sample was measured in a liquid scintillation counter (Beckman LS 6000SC, Beckman Instruments, Fullerton, CA). The procedure used for the expressed recombinant ARβ2 was modified as follows. […] The expressed proteins were diluted 1:100 and aliquots (100 μl) were added to each reaction tube. The tubes were vortexed and incubated over night at 4°C. To stop the binding reaction, 200 μl DCC was added to each tube. The tubes were vortexed and the suspension were incubated for 5 min at 4°C, before spinning at 3,000 × g at 4°C for 5 min. 250 μl of the supernatant was transferred into 5 ml scintillation vials and 4 ml of standard scintillation cocktail was added before the radioactivity in each sample was measured in a liquid scintillation counter (Wallac 1409, Wallac Oy, Turku, Finland).

Assay [2] has as its target recombinant stickleback ARβ2 (Gasterosteus aculeatus, UniProt Q801Z2). As to conditions: recombinant ARβ2, reticulocyte extract. As for the experimental part: The excised AR pBK CMV clones were digested with XbaI and EcoRI and the inserts were gel purified prior to ligation into the pCMV-TNT vector (Promega) between XbaI and EcoRI. […] AR was expressed by introducing the pCMV-TNT into the TNT coupled reticulocyte lysate system (Promega) according to the manufacturer's instructions. The size of the expressed products was determined by addition of S^35-methionin to the reticulocyte lysate system. The obtained protein suspension was analyzed on a denaturing 8% SDS PAGE and the sizes were determined using prestained SDS-PAGE broad range protein molecular weight standard (Bio-Rad) and a control luciferase protein of 62 kDa included in the reticulocyte lysate system (Promega). […]
Aliquots (250 μl) of the nuclear or cytosolic preparations were added to each tube, the tubes were vortexed and incubated over night at 4°C. […] The supernatants were decanted into 7 ml scintillation vials, 5 ml of standard scintillation cocktail was added and the radioactivity in each sample was measured in a liquid scintillation counter (Beckman LS 6000SC, Beckman Instruments, Fullerton, CA). […] 250 μl of the supernatant was transferred into 5 ml scintillation vials and 4 ml of standard scintillation cocktail was added before the radioactivity in each sample was measured in a liquid scintillation counter (Wallac 1409, Wallac Oy, Turku, Finland).

The subject of assay [3] is AR in three-spined stickleback kidney cytosolic extracts. As to conditions: 4°C. On the procedure: The reaction was terminated at different time-points ranging between 1 min and 24 h. The specific binding at each time-point was determined as described above.

recombinant stickleback ARβ2, sequence (Q801Z2 1-735): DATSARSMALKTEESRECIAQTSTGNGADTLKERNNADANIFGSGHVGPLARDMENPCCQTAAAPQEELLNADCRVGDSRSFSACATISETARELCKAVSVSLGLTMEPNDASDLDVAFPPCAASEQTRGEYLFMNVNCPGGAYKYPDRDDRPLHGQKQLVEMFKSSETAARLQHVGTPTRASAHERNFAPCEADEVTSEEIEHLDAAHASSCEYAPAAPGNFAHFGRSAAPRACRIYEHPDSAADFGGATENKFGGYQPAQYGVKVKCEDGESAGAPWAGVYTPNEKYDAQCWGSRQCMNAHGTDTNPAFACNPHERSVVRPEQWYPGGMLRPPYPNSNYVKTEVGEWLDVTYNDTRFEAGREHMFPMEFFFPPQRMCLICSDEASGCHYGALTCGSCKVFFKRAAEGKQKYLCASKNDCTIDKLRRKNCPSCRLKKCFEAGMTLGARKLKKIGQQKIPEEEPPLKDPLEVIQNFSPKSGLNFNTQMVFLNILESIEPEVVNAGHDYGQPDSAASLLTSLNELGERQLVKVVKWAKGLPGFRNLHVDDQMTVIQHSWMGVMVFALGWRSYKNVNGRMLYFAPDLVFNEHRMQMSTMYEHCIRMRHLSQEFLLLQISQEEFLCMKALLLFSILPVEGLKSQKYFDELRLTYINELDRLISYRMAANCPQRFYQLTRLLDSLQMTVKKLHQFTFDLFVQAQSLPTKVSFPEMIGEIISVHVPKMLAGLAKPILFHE

For orientation: Kd means a measure of binding affinity in units of concentration. A higher Kd goes with a looser complex. In the case of `C[C@]12CCC(=O)C[C@@H]1CC[C@@H]1[C@@H]2CC[C@]2(C)[C@@H](O)CC[C@@H]12` [[^3H]-DHT], in assay [1], the dissociation constant Kd was 18.7 ± 3.21 nM. The Bmax in assay [2] turned out to be 0.324 ± 0.04 pmol/mg protein. In addition, in assay [3] (4 nM tracer), the “association t1/2” value was determined as 3.3 min and the “time to reach binding equilibrium” value was 20 min. Also, in assay [3] (100-fold excess unlabelled DHT), the “dissociation t1/2” value was found to be 80 min and the “time to complete dissociation” value is no more than 8 h.
